Source: patent US8835418B2, “Hexafluoroisopropyl carbamate derivatives, their preparation and their therapeutic application” (SANOFI, priority 2010, dated 2014)
Where a name gives a salt, the structure may show the parent alone.

How the values were obtained:
[1] = biological target: T1, enzyme MGL (monoacyl glycerol lipase) (Mus musculus, UniProt O35678); assay: radioenzymatic assay of MGL activity (hydrolysis of [3H]2-oleoylglycerol by mouse brain homogenate); format: biochemical; settings: mouse brain homogenate (37.5 μg protein), 20 min preincubation, 50 μM 2-OG with [3H]2-OG, ambient temperature, read-out: IC50 (concentration which inhibits the control enzymatic activity of the MGL by 50%)
T1 construct: The source of enzyme MGL is a homogenate of mouse brain from which the cerebellum and the medulla oblongata have been removed; from tissue; host or cells: mouse brain homogenate (cerebellum and medulla oblongata removed)
T1 sequence (O35678 1-303): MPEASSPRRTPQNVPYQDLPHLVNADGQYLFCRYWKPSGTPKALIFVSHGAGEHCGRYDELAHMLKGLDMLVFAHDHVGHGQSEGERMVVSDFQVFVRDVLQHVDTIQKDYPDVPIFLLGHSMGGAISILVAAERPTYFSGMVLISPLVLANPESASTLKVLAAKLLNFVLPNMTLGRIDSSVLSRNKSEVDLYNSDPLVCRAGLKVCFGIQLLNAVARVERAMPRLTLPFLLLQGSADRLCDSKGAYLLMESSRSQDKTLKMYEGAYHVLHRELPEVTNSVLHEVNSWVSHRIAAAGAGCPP
Procedure: The inhibitory activity with respect to MGL is given by the concentration which inhibits 50% of the activity of MGL.
The inhibitory activity was measured in a radioenzymatic assay based on measuring the product of hydrolysis of 2-oleoylglycerol ([^3H]2-OG) by the enzyme MGL. The products of hydrolysis of [^3H]2-OG, labelled on the glycerol, are oleic acid and [^3H]glycerol. The source of enzyme MGL is a homogenate of mouse brain from which the cerebellum and the medulla oblongata have been removed. The mouse brains are removed and stored at −80° C. until they are used or homogenized immediately for 2 times 5 seconds using a Precellys device (Bertin) at 5000 rpm in a 10 mM Tris-HCl pH 8, 150 mM NaCl, 1 mM EDTA buffer at 4° C.
The dilution series of the compounds is prepared from stock solutions at 20 mM in 100% DMSO. The first dilution of this series is prepared in 100% DMSO and then the second is prepared in the enzymatic reaction buffer (50 mM phosphate, 0.1% BSA), resulting in the preparation of a 10-times concentrated concentration range. The test compounds are preincubated at the chosen concentration for 20 minutes with the mouse brain homogenate preparation.
Assaying of the MGL activity is carried out at ambient temperature in a 96-well microplate in a final reaction volume of 50 μl. […] After 20 minutes of preincubation with the test compounds, the proteins are incubated for 20 minutes in the presence of 50 μM of 2-OG comprising an amount of [^3H]2-OG of 0.027 μCi per well (specific activity of 20 Ci/mmol). The reaction is stopped by the addition of 50 μl per well of a charcoal suspension (6% of Sigma activated charcoal, reference C4386, in suspension in a 0.5M HCl, 1.5M NaCl solution). After stirring for 10 minutes, the [^3H]glycerol, not retained by the charcoal, is collected by filtration in a microplate comprising 100 μl of scintillant (OptiPhase Supermix, Perkin-Elmer) per well.

| SMILES | melting point | IC50 [1] |
| --- | --- | --- |
| O=C(OC(C(F)(F)F)C(F)(F)F)N1CCC(Nc2ccc(C(F)(F)F)cn2)CC1 (as salt: hydrochloride) [Compound 65, 2,2,2-Trifluoro-1-(trifluoromethyl)ethyl 4-(5-(trifluoromethyl)pyridin-2-ylamino)piperidine-1-carboxylate hydrochloride (1:1)] | 225 to 235 °C (dec.) | – |
| N#Cc1ccc(C2CCN(C(=O)OC(C(F)(F)F)C(F)(F)F)CC2)cc1 [Compound 5, 2,2,2-Trifluoro-1-(trifluoromethyl)ethyl 4-(4-cyanophenyl)piperidine-1-carboxylate] | 54 to 56 °C | – |
| O=C(OC(C(F)(F)F)C(F)(F)F)N1CCC(c2noc3cc(F)ccc23)CC1 [Compound 10, 2,2,2-Trifluoro-1-(trifluoromethyl)ethyl 4-(6-fluorobenz[d]isoxazol-3-yl)piperidine-1-carboxylate] | 91 to 93 °C | – |
| O=C(OC(C(F)(F)F)C(F)(F)F)N1CCC(n2c(=O)[nH]c3cc(Cl)ccc32)CC1 [Compound 12, 2,2,2-Trifluoro-1-(trifluoromethyl)ethyl 4-(5-chloro-2-oxo-2,3-dihydrobenzimidazol-1-yl)piperidine-1-carboxylate] | 231 to 233 °C | – |
| O=C(OC(C(F)(F)F)C(F)(F)F)N1CCC(n2nnc3cc(C(F)(F)F)ccc32)CC1 [Compound 13, 2,2,2-Trifluoro-1-(trifluoromethyl)ethyl 4-(5-(trifluoromethyl)benzotriazol-1-yl)piperidine-1-carboxylate] | – | 6 nM |
| O=C(OC(C(F)(F)F)C(F)(F)F)N1CC[C@H](Oc2cccc(-c3ccc(F)cc3)c2)C1 [Compound 22, 2,2,2-Trifluoro-1-(trifluoromethyl)ethyl (S)-3-(4′-fluorobiphenyl-3-yloxy)pyrrolidine-1-carboxylate] | 72 to 73 °C | – |
| O=C(OC(C(F)(F)F)C(F)(F)F)N1CC[C@@H](Oc2cccc(-c3ccc(F)cc3)c2)C1 [Compound 23, 2,2,2-Trifluoro-1-(trifluoromethyl)ethyl (R)-3-(4′-fluorobiphenyl-3-yloxy)pyrrolidine-1-carboxylate] | 72 to 73 °C | – |
| N#Cc1cccc(-c2cccc(OC3CCN(C(=O)OC(C(F)(F)F)C(F)(F)F)CC3)c2)c1 [Compound 33, 2,2,2-Trifluoro-1-(trifluoromethyl)ethyl 4-(3′-cyanobiphenyl-3-yloxy)piperidine-1-carboxylate] | 80 to 82 °C | 0.6 nM |
| N#Cc1cccc(-c2nccc(NC3CCN(C(=O)OC(C(F)(F)F)C(F)(F)F)CC3)n2)c1 [Compound 70, 2,2,2-Trifluoro-1-(trifluoromethyl)ethyl 4-[2-(3-cyanophenyl)pyrimidin-4-ylamino]pipendine-1-carboxylate] | 151 to 153 °C | 5 nM |
| CC(C)(Oc1ccc(Cl)cc1)C(=O)NCC1CCN(C(=O)OC(C(F)(F)F)C(F)(F)F)CC1 [Compound 87, 2,2,2-Trifluoro-1-(trifluoromethyl)ethyl 4-{[2-(4-chlorophenoxy)-2-methylpropionylamino]-methyl}piperidine-1-carboxylate] | 77 to 78 °C | – |
| O=C(OC(C(F)(F)F)C(F)(F)F)N1CCC(CNS(=O)(=O)c2cccc3ccccc23)C1 (stereo not drawn) [Compound 113, 2,2,2-Trifluoro-1-(trifluoromethyl)ethyl 3-[(naphthalene-1-sulphonylamino)methyl]-pyrrolidine-1-carboxylate] | 135 to 136 °C | – |
| O=C(Nc1cccc(Cl)c1)NC1CCN(C(=O)OC(C(F)(F)F)C(F)(F)F)CC1 [Compound 166, 2,2,2-Trifluoro-1-(trifluoromethyl)ethyl 4-[3-(3-chlorophenyl)ureido]piperidine-1-carboxylate] | 204 to 206 °C | – |
| O=C(NCCC1CN(C(=O)OC(C(F)(F)F)C(F)(F)F)C1)Nc1cccc(Cl)c1 [Compound 188, 2,2,2-Trifluoro-1-(trifluoromethyl)ethyl 3-{2-[3-(3-chlorophenyl)ureido]ethyl}azetidine-1-carboxylate] | 116 to 117 °C | 1.1 nM |
| CN(C(=O)NCCC1CN(C(=O)OC(C(F)(F)F)C(F)(F)F)C1)c1ccccc1 [Compound 191, 2,2,2-Trifluoro-1-(trifluoromethyl)ethyl 3-[2-(3-methyl-3-phenylureido)ethyl]azetidine-1-carboxylate] | 101 to 102 °C | – |
| O=C(OC(C(F)(F)F)C(F)(F)F)N1CCC(CNS(=O)(=O)c2cccc3nsnc23)CC1 [Compound 211, 2,2,2-Trifluoro-1-(trifluoromethyl)ethyl 4-[(benzo[1,2,5]thiadiazole-4-sulphonylamino)methyl]piperidine-1-carboxylate] | 146 to 148 °C | 7 nM |
| O=C(OC(C(F)(F)F)C(F)(F)F)N1CC(C2(NS(=O)(=O)c3ccc(Cl)cc3)CC2)C1 [Compound 220, 2,2,2-Trifluoro-1-(trifluoromethyl)ethyl 3-[1-(4-chlorobenzenesulphonylamino)cyclopropyl]-azetidine-1-carboxylate] | 108 to 109 °C | – |
| NC(=O)c1cnn(CC2CCN(C(=O)OC(C(F)(F)F)C(F)(F)F)CC2)c1 [Compound 231, 2,2,2-Trifluoro-1-(trifluoromethyl)ethyl 4-(4-carbamoylpyrazol-1-ylmethyl)piperidine-1-carboxylate] | 98 to 118 °C | – |
